Measurements reported in US4482722A, “Ester of metronidazole with N,N-dimethylglycine and acid addition salt thereof” (A/S Dumex (Dumex Ltd.), priority 1982, dated 1984).
Values joined by “and” are separate entries in the source; they are usually repeats but may differ in a detail not shown here. Equal entries are not always repeated. Structures can show the parent of a compound that is named as a salt. Where two headings read alike, the source gives them in different places. Blank lines part the entries; values can stand above or below the molecule they belong to.

Experiments:
[1] = Hydrolysis to metronidazole in human plasma (in vitro); type: in vitro ADME
[2] = Hydrolysis to metronidazole in 0.05M phosphate buffer pH 7.4; type: physicochemical; conditions: pH 7.4, 37° C, read-out: t1/2 in buffer
[3] = cited from earlier work
[4] = compound itself (uncleaved ester); cited from earlier work
[5] = after parenteral administration; cited from earlier work
[6] = Intravenous cross-over study in two beagle dogs, plasma concentrations of ester, metronidazole and metabolites; type: in vivo
Text: (§1) To test the assumption that the N,N-dimethylglycine ester would be a suitable water-soluble prodrug of metronidazole for parenteral administration, metronidazole and its N,N-dimethylglycine ester were given intravenously to two beagle dogs in a cross-over study.

[7] = pH of aqueous solutions of the hydrochloride; type: physicochemical; conditions: 1-20% w/v aqueous solutions
[8] = Local tolerance after intravenous injection in dogs; type: in vivo, beagle dogs
Text: as §1

[9] = Initial rate of formation of metronidazole and time to begin precipitation, calculated at 23° C (Table 2); type: physicochemical
Experimental: Since t10% for the ester is 73 h at 23° C., the results given in Table 2 indicate that the stability of aqueous solutions of the prodrug ester will only be limited by the potential precipitation of metronidazole formed upon hydrolysis in those cases where the concentration of the ester in aqueous solutions exceeds about 20%.

[10] = Solubility in water / aqueous solution; type: physicochemical
[11] = Hydrolysis in 80% dog plasma in vitro; type: in vitro ADME; conditions: 80% plasma, 37° C
Text: As noted below the rapid and quantitative formation of metronidazole seen after administration of the ester indicate, however, that the rate of ester disappearance is solely or predominantly due to the hydrolytic conversion.

[12] = Effect of temperature on rate of hydrolysis in acetate buffer pH 4.4 (Arrhenius plot); type: physicochemical
Experimental: The effect of temperature on the rate of hydrolysis of metronidazole N,N-dimethylglycinate was studied in 0.05M acetate buffer of pH 4.4 over the temperature range 23°-50° C.
The results obtained are illustrated in FIG. 1 of the drawings. […] Based on the slope of said plot an activation energy of 17.7 kcal mole^-1 was calculated. Based on said Arrhenius type plot the stability of aqueous solutions of the ester may be predicted at various temperatures.

[13] = compared with metronidazole at the same dosage level; cited from earlier work
[14] = published data; cited from earlier work
[15] = 80% plasma, 80% human plasma, pH 7.4, 37° C, read-out: t1/2 in human plasma

half-life [1, 15]: 3.45 h | half-life [2]: 5.25 h
Structure (SMILES): Cc1ncc([N+](=O)[O-])n1CCOC(=O)CCN

half-life [1, 15]: 0.767 h | half-life [2]: 0.867 h
Structure (SMILES): Cc1ncc([N+](=O)[O-])n1CCOC(=O)CCN(C)C

half-life [1, 15]: 5.57 h | half-life [2]: 9.67 h
Structure (SMILES): Cc1ncc([N+](=O)[O-])n1CCOC(=O)CCCN(C)C

Structure (SMILES): Cc1ncc([N+](=O)[O-])n1CCOC(=O)CCC(=O)O
solubility in water (in words) ([3]; prior art esters): has the required solubility in water | microbiological activity (in words) [4]: microbiologically inactive | cleavage of the ester in blood serum (in words) [5]: very slow

Structure (SMILES): Cc1ncc([N+](=O)[O-])n1CC(=O)O [2-Methyl-5-nitroimidazole-1-aceticacid]
plasma concentration of metabolite (in words) ([6]; dogs, i.v. ester hydrochloride (30 mg/kg metronidazole equivalents) or metronidazole (10 mg/kg)): could not be detected in measurable concentrations

half-life [1, 15]: 8.72 h | half-life [2]: 28.7 h
Structure (SMILES): Cc1ncc([N+](=O)[O-])n1CCOC(=O)CN1CCN(C)CC1 [4-Methyl-1-piperazinoacetate]

half-life [1, 15]: 0.683 h | half-life [2]: 1.92 h
Structure (SMILES): Cc1ncc([N+](=O)[O-])n1CCOC(=O)CN [Glycinate]

Structure (SMILES): Cc1ncc([N+](=O)[O-])n1CCOC(=O)CN(C)C [Metronidazole N,N-dimethylglycinate hydrochloride]
pH of the 1-20% w/v solutions [7]: 4.4-4.6 | conversion to metronidazole (in words) ([6]; i.v., dogs): rapidly and completely converted to metronidazole | signs of pain or local toxicity [8]: No signs of pain or local toxicity | (d[M]/dt)i, apparent zero-order initial rate of formation of metronidazole ([9]; 50 mg ml^-1 hydrochloride): 0.042 mg/mL/h | tpt, time for metronidazole to begin precipitation ([9]; 50 mg ml^-1 hydrochloride): 238 h | (d[M]/dt)i, apparent zero-order initial rate of formation of metronidazole ([9]; 100 mg ml^-1 hydrochloride): 0.084 mg/mL/h | tpt, time for metronidazole to begin precipitation ([9]; 100 mg ml^-1 hydrochloride): 119 h | (d[M]/dt)i, apparent zero-order initial rate of formation of metronidazole ([9]; 200 mg ml^-1 hydrochloride): 0.168 mg/mL/h | tpt, time for metronidazole to begin precipitation ([9]; 200 mg ml^-1 hydrochloride): 60 h | (d[M]/dt)i, apparent zero-order initial rate of formation of metronidazole ([9]; 300 mg ml^-1 hydrochloride): 0.252 mg/mL/h | tpt, time for metronidazole to begin precipitation ([9]; 300 mg ml^-1 hydrochloride): 40 h | solubility ([10]; water, 20° C, read-out: solubility in water): > 500000 µg/mL and > 1.7e+06 µM

half-life [1, 15]: 0.133 h | half-life [2]: 1.5 h
Structure (SMILES): CCCNCC(=O)OCCn1c([N+](=O)[O-])cnc1C [N--Propylglycinate]

Structure (SMILES): Cc1ncc([N+](=O)[O-])n1CCOC(=O)CN(C)C [metronidazole N,N-dimethylglycinate]
half-life [11]: 0.417 h | half-life of disappearance of the ester in dogs ([6]; i.v. hydrochloride, 30 mg/kg metronidazole equivalents, one value per dog, 30 mg/kg): approximately 3 min and ~7 min | hydrolysis in the dogs (in words) ([6]; i.v., 30 mg/kg metronidazole equivalents): hydrolyzed rapidly | pattern of metabolite formation (in words) ([6]; i.v., dogs, compared with injection of metronidazole): quite similar to that observed after injection of metronidazole | activation energy of hydrolysis ([12]; 0.05M acetate buffer pH 4.4, 23°-50° C, Arrhenius plot): 17.7 kcal/mol | t10% (time in which 10% of the ester is degraded) ([12]; pH 4.4, 4° C): 576 h | t10% (time in which 10% of the ester is degraded) ([12]; pH 4.4, 15° C): 166 h | t10% (time in which 10% of the ester is degraded) ([12]; pH 4.4, 23° C): 73 h | half-life [1, 15]: 0.2 h | half-life ([1]; human plasma or blood, in vitro, read-out: half-life of hydrolysis in human plasma or blood): 0.15 to 0.2 h | half-life [2]: 4.17 h

solubility ([10]; aqueous solution, pH>3, 25° C, read-out: solubility in aqueous solutions): 10000 µg/mL and 58000 µM
Structure (SMILES): Cc1ncc([N+](=O)[O-])n1CCO [metronidazole]
solubility in an aqueous solution ([3]; background statement): about 100 mg/10 ml | solubility augmented by solubilizers ([3]; with gentisic acid (1:4) or with co-solvents (prior art)): 500-650 mg/10 ml

Structure (SMILES): Cc1ncc([N+](=O)[O-])n1CCOP(=O)(O)O [phosphate ester]
bioavailability of metronidazole to rats (in words) [13]: significantly lower than that obtained with metronidazole at the same dosage level | rate of conversion to metronidazole in vivo (in words) [14]: rather slow rate of conversion to metronidazole in vivo
